Data published in US6656690B2, “Mass spectrometric methods for biomolecular screening” (priority 1998, dated 2003).
Where two headings read alike, the source gives them in different places.

Tests used:
18S A site model = test: ESI-FTICR mass spectrometric (MASS) binding assay, mass-tagged 18S A-site 27-mer RNA model; design: species or system eukaryotic; details: aminoglycosides 500 nM each, mixture with untagged 16S and tagged 18S
Protocol: The ESI-FTICR mass spectrum depicted in FIG. 26 was acquired from a […] mixture of untagged 16S and tagged 18S in the presence of an equimolar mixture of five aminoglycosides. It is to be understood that other biomolecules may be used in place of the aminoglycosides. The aminoglycosides have been selected from two classes of 2-deoxystreptamines: 4,5-disubstituted (paromomycin, and lividomycin), and 4,6-disubstituted (tobramycin, sisomicin, and bekanamycin), present at 500 nM each. Complexes corresponding to 1:1 binding of individual aminoglycosides were observed between 16S and all members of the aminoglycoside mixture, with the apparent affinities estimated from the abundances of the respective complexes differing substantially. Signal intensities from the complexes with paromomycin (m/z 1925.572) and lividomycin (m/z 1954.790) are consistent with MS-measured dissociation constants of 110 nM and 28 nM, respectively. The intensities of 16S complexes with tobramycin (m/z 1895.960), bekanamycin (m/z 1899.171), and sisomicin (m/z 1891.972) were reduced, consistent with solution dissociation constants of […]. Wang, et al., Biochemistry, 1997, 36, 768-779. […] The average mass measurement error obtained for the complexes in FIG. 26 is 2.1 ppm when m/z differences are measured between the most abundant (4 ^13C) isotope peak of 16S and each complex. […]

[1] = biological target: prokaryotic 16S rRNA (the A-site); details: cited from earlier work

In the case of `NC[C@@H]1O[C@H](O[C@H]2[C@@H](O)[C@H](O[C@@H]3[C@@H](O)[C@H](N)C[C@H](N)[C@H]3O[C@H]3O[C@H](CO)[C@@H](O)[C@H](O)[C@H]3N)O[C@@H]2CO)[C@H](N)[C@@H](O)[C@@H]1O` [paromomycin], the “complexes observed with 18S (in words)” value (18S A site model) is listed as “complete absence of complexes”, the Kd ([1]; 16S A-site, previously reported, listed as Paromomycin, read-out: literature / solution KD) is listed as ~200 nM and the Kd ([1]; 16S A-site, previously reported, read-out: literature / solution KD) is listed as 200 nM. The Kd ([1]; Recht 1996, Wong 1998, Wang 1997, read-out: reported kD values) was ~200 nM and the Kd ([1]; test 27-mer RNA, known from other experiments or literature, read-out: binding affinity) was ~1000 nM.
